Holding throughout (assay type): in vivo
Series [1] deals with blood-sugar. Kind of series: Blood-sugar lowering activity in starved female rats after oral administration. The note with it: for change in vivo at 1 mg/kg / change in vivo at 5 mg/kg / change in vivo at 10 mg/kg: Rattus norvegicus, po, read-out: Blood-sugar lowering activity, percent as compared with the controls; for change in vivo at 10 mg/kg: 10 mg/kg orally (footnote *). The procedure:
The blood-sugar lowering activity of the test compounds was determined in home-bred female rats with weights of from 180 to 220 grams. Twenty-four hours before starting the test the animals were starved. Before the test the compounds were suspended in 1.5% methyl cellulose and administered to the animals by means of an esophageal tube.
Blood was taken from the retroorbital plexus vein before administration of the test compounds as well as each of 1, 2, 3, and 4 hours after administration. Fifty microliters of each sample were deproteinized with 0.5 ml of 0.33N perchloric acid and centrifuged. The glucose content was determined in the supernatant according to the Hexokinase method by means of an analysis photometer. The statistical evalulation was performed with the t-test according to Student with p=0.05.

Series [2] in a line: Acute toxicity in female and male mice after oral administration of a single dose. The note with it: mouse, in vivo, observation time 14 days, read-out: Peroral Toxicity. The procedure: (§1) The acute toxicity was determined in home-bred female and male mice having body weights of from 20 to 26 gm after oral administration (suspension in a 1% methyl cellulose solution) of a single dose. Observation time: 14 days.

The test system of series [3] is mice. The description is as above. The note with it: observation time 14 days. The procedure:
as §1

The mark [4] stands for this setting: 1 mg/kg orally, 1 hour, n.s. = not statistically significant.
Setting [5] is: 1 mg/kg orally, 2 hours, n.s. = not statistically significant.
[6] abbreviates: 1 mg/kg orally, 3 hours, n.s. = not statistically significant.
[7] abbreviates: 1 mg/kg orally, 4 hours, n.s. = not statistically significant.
Where [8] appears, read: 5 mg/kg orally, 1 hour, n.s. = not statistically significant.
Where [9] appears, read: 5 mg/kg orally, 2 hours, n.s. = not statistically significant.
[10] abbreviates: 5 mg/kg orally, 3 hours, n.s. = not statistically significant.
Setting [11] is: 5 mg/kg orally, 4 hours, n.s. = not statistically significant.
The mark [12] stands for this setting: 3 hours, n.s. = not statistically significant.
Where [13] appears, read: 4 hours, n.s. = not statistically significant.

Like-named read-outs stand apart in the source and are kept apart here.

For the compound `CC(C)=C(NC(=O)Cc1ccc(C(=O)O)cc1)c1ccccc1N1CCCCC1` [D, 4-[(2-Methyl-1-(2-piperidino-phenyl)-1-propen-1-yl)-aminocarbonylmethyl]-benzoic acid], the change in vivo at 1 mg/kg in series [1] (setting [4]) is -36%; in series [1] (setting [5]) it was -32%; in series [1] (setting [6]), -27%; in series [1] (setting [7]) it was -25%. The LD50 at 336 h in series [2] is more than 500 mg/kg. In addition, the animals died in series [3] is given as 0 out of 6.

Turning to `CC/C=C(/NC(=O)Cc1ccc(C(=O)O)cc1)c1ccccc1N1CCCCC1` [C, (E)-4-[(1-(2-Piperidino-phenyl)-1-buten-1-yl)-aminocarbonylmethyl]-benzoic acid], the change in vivo at 1 mg/kg was -43% in series [1] (setting [4]), -43% in series [1] (setting [5]), -37% in series [1] (setting [6]) and -38% in series [1] (setting [7]). In series [2], the LD50 at 336 h was more than 2000 mg/kg. Moreover, in series [3], the animals died is recorded as 0 out of 6.

Regarding `CC/C=C(\NC(=O)Cc1ccc(C(=O)O)cc1)c1ccccc1N1CCCCC1` [A, (Z)-4-[(1-(2-Piperidino-phenyl)-1-buten-1yl)-aminocarbonylmethyl]-benzoicacid], the change in vivo at 1 mg/kg in series [1] (setting [4]) was -43%; in series [1] (setting [5]) it was -40%; in series [1] (setting [6]), -33%; in series [1] (setting [7]), -35%. Besides, in series [2], the LD50 at 336 h is more than 1000 mg/kg. For the same compound, the animals died in series [3] was 0 out of 6.

For `Cc1cccc(C(NC(=O)Cc2ccc(C(=O)O)cc2)c2ccccc2N2CCCCC2)c1` (stereo not drawn) [AB, 4-[(α-(3-Methyl-phenyl)-2-piperidino-benzyl)-aminocarbonylmethyl]-benzoic acid], the “Blood-sugar lowering activity, percent as compared with the controls” value (“Blood-sugar lowering activity, percent” for short) in series [1] (setting [6]) and in series [1] (setting [7]) was “n.s” each time. Besides, the change in vivo at 1 mg/kg in series [1] (setting [4]) was -26%; in series [1] (setting [5]), -15%. Further, the change in vivo at 5 mg/kg in series [1] (setting [8]) was -43%; in series [1] (setting [9]), -38%; in series [1] (setting [10]), -36%; in series [1] (setting [11]), -27%. For the same compound, in series [2], the LD50 at 336 h was more than 1000 mg/kg. Also, the animals died in series [3] is on record as 0 out of 10.

As for `Cc1ccc(C(NC(=O)Cc2ccc(C(=O)O)cc2)c2ccccc2N2CCCCC2)cc1` (stereo not drawn) [AA, 4-[(α-(4-Methyl-phenyl)-2-piperidino-benzyl)-aminocarbonylmethyl]-benzoic acid], the “Blood-sugar lowering activity, percent” value in series [1] (setting [7]) and in series [1] (setting [11]) was “n.s” each time. For the same compound, the change in vivo at 1 mg/kg in series [1] (setting [4]) is -15%; in series [1] (setting [5]), -15%; in series [1] (setting [6]) it was -13%. Further, the change in vivo at 5 mg/kg in series [1] (setting [8]) is -30%; in series [1] (setting [9]), -33%; in series [1] (setting [10]), -14%. For the same compound, in series [2], the LD50 at 336 h is more than 1000 mg/kg. In series [3], the animals died is listed as 0 out of 10.

Consider `CC(NC(=O)Cc1ccc(C(=O)O)cc1)c1ccccc1N1CCCCC1` (racemic) [AT, (±)-4-[(1-(2-Piperidino-phenyl)-1-ethyl)-aminocarbonylmethyl]-benzoicacid], for which the “Blood-sugar lowering activity, percent” value in series [1] (setting [6]) is “n.s”. Further, the change in vivo at 1 mg/kg is -34% in series [1] (setting [4]), -26% in series [1] (setting [5]) and -11% in series [1] (setting [7]). The change in vivo at 5 mg/kg in series [1] (setting [8]) was -45%; in series [1] (setting [9]), -45%; in series [1] (setting [10]) it was -36%; in series [1] (setting [11]), -32%. Besides, the LD50 at 336 h in series [2] is more than 2000 mg/kg. Also, the animals died in series [3] is recorded as 1 out of 10.

Consider `O=C(Cc1ccc(C(=O)O)cc1)NC(c1ccccn1)c1ccccc1N1CCCCC1` (stereo not drawn) [AG, 4-[(2-Piperidino-α-(2-pyridyl)-benzyl)-aminocarbonylmethyl]-benzoic acid], for which the “Blood-sugar lowering activity, percent” value in series [1] (setting [5]), in series [1] (setting [6]) and in series [1] (setting [7]) was “n.s” throughout. Further, the change in vivo at 1 mg/kg in series [1] (setting [4]) was -18%. For the same compound, the change in vivo at 10 mg/kg in series [1] (1 hour) was -49%; in series [1] (2 hours), -50%; in series [1] (setting [12]) it was -36%; in series [1] (setting [13]), -31%. Further, in series [2], the LD50 at 336 h is more than 1000 mg/kg. In addition, in series [3], the animals died is listed as 0 out of 10.

On to `O=C(Cc1ccc(C(=O)O)cc1)NC(c1ccccc1)c1ccccc1N1CCCCC1` (racemic) [AV, (±)-4-[(2-Piperidino-benzhydryl)-aminocarbonylmethyl]-benzoic acid], for which the change in vivo at 1 mg/kg in series [1] (setting [4]) was -41%; in series [1] (setting [5]), -38%; in series [1] (setting [6]), -26%; in series [1] (setting [7]) it was -24%. Moreover, the change in vivo at 5 mg/kg in series [1] (setting [8]) was -44%; in series [1] (setting [9]), -38%; in series [1] (setting [10]), -41%; in series [1] (setting [11]) it was -37%. In addition, the LD50 at 336 h in series [2] was more than 2000 mg/kg. In addition, the animals died in series [3] is reported as 0 out of 10.

For `N#CC(NC(=O)Cc1ccc(C(=O)O)cc1)c1ccccc1N1CCCCC1` (stereo not drawn) [Q, 4-[(α-Cyano-2-piperidino-benzyl)-aminocarbonylmethyl]-benzoic acid], the “Blood-sugar lowering activity, percent” value in series [1] (setting [10]) and in series [1] (setting [11]) was “n.s” in each case. The results for the change in vivo at 5 mg/kg in series [1] (setting [8]) and in series [1] (setting [9]) were -28% and -13%, respectively.

Take `CCCC(NC(=O)Cc1ccc(C(=O)O)cc1)c1ccccc1N1CCCCC1` (single isomer, unassigned; (+)) [K, (+)-4-[(1-(2-Piperidino-phenyl)-1-butyl)-aminocarbonylmethyl]-benzoic acid]: the change in vivo at 1 mg/kg is -41% in series [1] (setting [4]), -43% in series [1] (setting [5]), -38% in series [1] (setting [6]) and -31% in series [1] (setting [7]).

In the case of `CCCC(NC(=O)Cc1ccc(C(=O)O)cc1)c1ccc(F)cc1N1CCCCC1` (centres unmarked) [V, 4-[(1-(4-Fluoro-2-piperidino-phenyl)-1-butyl)-aminocarbonylmethyl]-benzoic acid], the change in vivo at 1 mg/kg in series [1] (setting [4]) is -37%; in series [1] (setting [5]) it was -23%; in series [1] (setting [6]) it was -30%; in series [1] (setting [7]), -18%. Also, the change in vivo at 5 mg/kg in series [1] (setting [8]) is -45%; in series [1] (setting [9]), -41%; in series [1] (setting [10]), -46%; in series [1] (setting [11]) it was -40%.

For `O=C(O)C=Cc1ccc(CC(=O)NC(c2ccccc2)c2ccccc2N2CCCCC2)cc1` (stereo not drawn) [AK, 4-[(α-Phenyl-2-piperidino-benzyl)-aminocarbonylmethyl]-cinnamic acid], the change in vivo at 1 mg/kg in series [1] (setting [4]) is -32%; in series [1] (setting [5]), -19%; in series [1] (setting [6]) it was -10%; in series [1] (setting [7]), -17%. For the same compound, the change in vivo at 10 mg/kg in series [1] (1 hour) was -48%; in series [1] (2 hours), -47%; in series [1] (setting [12]), -40%; in series [1] (setting [13]) it was -45%.

Values taken from patent US4735959A, “Carboxylic acid amides and pharmaceutical compositions containing them” (Dr. Karl Thomae GmbH, priority 1981, dated 1988).
